Source: publication PMC9120017, “Inhibition mechanism of the chloride channel TMEM16A by the pore blocker 1PBC” (Nature Communications, 2022)
Like-named read-outs stand apart in the source and are kept apart here.

Molecular target: T1, mouse TMEM16A mutant R515A (Mus musculus, UniProt Q8BHY3, R515A)
T1 construct: expressed in transfected cells; host or cells: HEK293T
T1 sequence (Q8BHY3 1-960 R515A): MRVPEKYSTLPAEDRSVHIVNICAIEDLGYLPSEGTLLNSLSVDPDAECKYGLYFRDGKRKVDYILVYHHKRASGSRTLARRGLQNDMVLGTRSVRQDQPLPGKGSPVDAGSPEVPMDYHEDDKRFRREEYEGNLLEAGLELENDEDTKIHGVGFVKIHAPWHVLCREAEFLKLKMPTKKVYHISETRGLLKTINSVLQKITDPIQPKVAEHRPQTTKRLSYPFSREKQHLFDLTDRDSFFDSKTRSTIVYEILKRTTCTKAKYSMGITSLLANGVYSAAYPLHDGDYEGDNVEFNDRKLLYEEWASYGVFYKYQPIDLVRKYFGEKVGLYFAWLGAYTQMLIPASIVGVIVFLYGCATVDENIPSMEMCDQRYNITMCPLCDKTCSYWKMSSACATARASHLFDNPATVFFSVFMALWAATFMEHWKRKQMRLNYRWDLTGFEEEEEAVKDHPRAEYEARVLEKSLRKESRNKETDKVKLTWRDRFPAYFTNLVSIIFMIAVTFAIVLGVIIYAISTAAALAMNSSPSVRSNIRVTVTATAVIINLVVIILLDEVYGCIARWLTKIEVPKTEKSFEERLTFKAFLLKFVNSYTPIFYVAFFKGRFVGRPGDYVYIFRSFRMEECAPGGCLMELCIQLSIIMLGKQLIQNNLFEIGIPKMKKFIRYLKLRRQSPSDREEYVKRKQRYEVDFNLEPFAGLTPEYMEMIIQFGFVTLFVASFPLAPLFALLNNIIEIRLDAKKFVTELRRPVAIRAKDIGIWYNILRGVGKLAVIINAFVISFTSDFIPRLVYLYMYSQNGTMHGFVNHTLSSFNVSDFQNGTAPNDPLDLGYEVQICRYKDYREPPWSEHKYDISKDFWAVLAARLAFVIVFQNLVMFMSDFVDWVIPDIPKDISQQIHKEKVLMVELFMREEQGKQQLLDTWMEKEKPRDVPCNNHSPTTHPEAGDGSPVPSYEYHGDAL
Assay: Inside-out patch recording of 1PBC block, mutant R515A
Format: cell-based
Protocol: HEK293T cells (ATCC CRL-1573) were maintained in Dulbecco’s modified Eagle’s medium (DMEM; Sigma-Aldrich) supplemented with 10 U ml^−1 penicillin, 0.1 mg ml^−1 streptomycin (Sigma-Aldrich), 2 mM L-glutamine (Sigma-Aldrich), and 10% FBS (Sigma-Aldrich) in a humidified atmosphere containing 5% CO2 at 37 °C. HEK293S GnTI^− cells (ATCC CRL-3022) were maintained in HyClone HyCell TransFx-H medium (GE Healthcare) supplemented with 10 U ml^−1 penicillin, 0.1 mg ml^−1 streptomycin, 4 mM L-glutamine, 0.15% poloxamer 188 (Sigma-Aldrich), and 1% FBS in an atmosphere containing 5% CO2 at 185 rpm at 37 °C. The ac splice variant of mouse TMEM16A (UniProt ID: Q8BHY3), mouse TMEM16B (UniProt ID: Q8CFW1), or mouse TMEM16F (UniProt ID: Q6P9J9) bearing a 3C cleavage site, a Venus YFP, a Myc tag, and a Streptavidin-binding peptide (SBP) downstream of the open reading frame in a modified pcDNA3.1 vector (Invitrogen) were used as described previously[21],[31]. Mutations were introduced using a modified QuikChange method[58] and were verified by sequencing.
HEK293T cells were transfected with 3–4 μg DNA per 6 cm Petri dish using the calcium phosphate co-precipitation method and were used within 24–96 h after transfection. Recordings were performed on inside-out patches excised from HEK293T cells expressing the construct of interest. Patch pipettes were pulled from borosilicate glass capillaries (O.D. 1.5 mm, I.D. 0.86 mm, Sutter Instrument) and were fire-polished with a microforge (Narishige) before use. Pipette resistance was typically 3–8 MΩ when filled with the recording solutions detailed below. Seal resistance was typically 4 GΩ or higher. Voltage-clamp recordings were made using Axopatch 200B, Digidata 1550, and Clampex 10.7 (Molecular Devices). Analog signals were filtered with the in-built 4-pole Bessel filter at 10 kHz and were digitized at 20 kHz. Solution exchange was achieved using a gravity-fed system through a theta glass pipette mounted on an ultra-fast piezo-driven stepper (Siskiyou). […] All recordings were performed at 20 °C.
A symmetrical ionic condition was used throughout. Stock solution with Ca^2+-EGTA contained 150 mM NaCl, 5.99 mM Ca(OH)2, 5 mM EGTA, and 10 mM HEPES at pH 7.40. Stock solution with EGTA contained 150 mM NaCl, 5 mM EGTA, and 10 mM HEPES at pH 7.40. Free Ca^2+ concentrations were adjusted by mixing the stock solutions at the required ratios calculated using the WEBMAXC program (http://web.stanford.edu/~cpatton/webmaxcS.htm). Patch pipettes were filled with the stock solution with Ca^2+-EGTA, which has a free Ca^2+ concentration of 1 mM. 1PBC (ChemBridge) stock was reconstituted in anhydrous DMSO (Sigma-Aldrich) at 100 mM and stored at −20 °C. Working solutions with 1PBC were prepared by serial dilution. Unless otherwise stated, experiments were performed at a saturating Ca^2+ concentration as shown in Supplementary Table 1 and the primary data were corrected for current rundown as described previously[21],[25].
Concentration-response relations, obtained from the ratio of the I-V plots before and after the application of the blocker, were fitted to the Hill equation,1 I/Imax=1/1+IC50/[blocker]^h where I/Imax is the normalized current responses, IC50 defines the concentration at which inhibition is at its half-maximum, and h is the Hill coefficient.

Compound `N#Cc1c(C(F)(F)F)cc(O)n2c1nc1ccccc12` [1PBC] has an IC50 (0 mV, 4 µM Ca2+) of 120 µM, a remaining activity at 10 µM (10 µM 1PBC, +80 mV, saturating Ca2+ (4 µM), read-out: I/Imax) of 91.2% and a remaining activity at 10 µM (10 µM 1PBC, -80 mV, saturating Ca2+ (4 µM), read-out: I/Imax) of 93.3%. It also gave a remaining activity at 30 µM (30 µM 1PBC, +80 mV, saturating Ca2+ (4 µM), read-out: I/Imax) of 74.8%, a remaining activity at 30 µM (30 µM 1PBC, -80 mV, saturating Ca2+ (4 µM), read-out: I/Imax) of 86.5% and a remaining activity at 100 µM (100 µM 1PBC, +80 mV, saturating Ca2+ (4 µM), read-out: I/Imax) of 47.7%. The remaining activity at 100 µM (100 µM 1PBC, -80 mV, saturating Ca2+ (4 µM), read-out: I/Imax) was 61.6%, the remaining activity at 10 µM (1PBC 10, 0 mV, read-out: fraction of unblocked current) was 92.5% and the remaining activity at 10 µM (1PBC 10, 20 mV, read-out: fraction of unblocked current) was 92.3%. For the same compound, the remaining activity at 10 µM (1PBC 10, 40 mV, read-out: fraction of unblocked current) was 92.8%, the remaining activity at 10 µM (1PBC 10, 60 mV, read-out: fraction of unblocked current) was 91.6% and the remaining activity at 10 µM (1PBC 10, 80 mV, read-out: fraction of unblocked current) was 91.2%. It also gave a remaining activity at 10 µM (1PBC 10, 100 mV, read-out: fraction of unblocked current) of 93.9%, a remaining activity at 10 µM (1PBC 10, 120 mV, read-out: fraction of unblocked current) of 90.5% and a remaining activity at 10 µM (1PBC 10, 140 mV, read-out: fraction of unblocked current) of 93.5%. It also gave a remaining activity at 10 µM (1PBC 10, -20 mV, read-out: fraction of unblocked current) of 92.7%, a remaining activity at 10 µM (1PBC 10, -40 mV, read-out: fraction of unblocked current) of 91.8% and a remaining activity at 10 µM (1PBC 10, -60 mV, read-out: fraction of unblocked current) of 91.4%. It also gave a remaining activity at 10 µM (1PBC 10, -80 mV, read-out: fraction of unblocked current) of 93.3%, a remaining activity at 10 µM (1PBC 10, -100 mV, read-out: fraction of unblocked current) of 92.8% and a remaining activity at 10 µM (1PBC 10, -120 mV, read-out: fraction of unblocked current) of 91.8%. For the same compound, the remaining activity at 10 µM (1PBC 10, -140 mV, read-out: fraction of unblocked current) was 93.3%, the remaining activity at 30 µM (1PBC 30, 0 mV, read-out: fraction of unblocked current) was 79.3% and the remaining activity at 30 µM (1PBC 30, 20 mV, read-out: fraction of unblocked current) was 77.3%. The remaining activity at 30 µM (1PBC 30, 40 mV, read-out: fraction of unblocked current) was 75.6%, the remaining activity at 30 µM (1PBC 30, 60 mV, read-out: fraction of unblocked current) was 73.2% and the remaining activity at 30 µM (1PBC 30, 80 mV, read-out: fraction of unblocked current) was 74.8%. The remaining activity at 30 µM (1PBC 30, 100 mV, read-out: fraction of unblocked current) was 73.1%, the remaining activity at 30 µM (1PBC 30, 120 mV, read-out: fraction of unblocked current) was 70.9% and the remaining activity at 30 µM (1PBC 30, 140 mV, read-out: fraction of unblocked current) was 70%. The remaining activity at 30 µM (1PBC 30, -20 mV, read-out: fraction of unblocked current) was 81.4%, the remaining activity at 30 µM (1PBC 30, -40 mV, read-out: fraction of unblocked current) was 84% and the remaining activity at 30 µM (1PBC 30, -60 mV, read-out: fraction of unblocked current) was 84.5%. For the same compound, the remaining activity at 30 µM (1PBC 30, -80 mV, read-out: fraction of unblocked current) was 86.5%, the remaining activity at 30 µM (1PBC 30, -100 mV, read-out: fraction of unblocked current) was 87.5% and the remaining activity at 30 µM (1PBC 30, -120 mV, read-out: fraction of unblocked current) was 86.9%. It also gave a remaining activity at 30 µM (1PBC 30, -140 mV, read-out: fraction of unblocked current) of 85.6%, a remaining activity at 100 µM (1PBC 100, 0 mV, read-out: fraction of unblocked current) of 55% and a remaining activity at 100 µM (1PBC 100, 20 mV, read-out: fraction of unblocked current) of 53.1%. It also gave a remaining activity at 100 µM (1PBC 100, 40 mV, read-out: fraction of unblocked current) of 51%, a remaining activity at 100 µM (1PBC 100, 60 mV, read-out: fraction of unblocked current) of 49.1% and a remaining activity at 100 µM (1PBC 100, 80 mV, read-out: fraction of unblocked current) of 47.7%. For the same compound, the remaining activity at 100 µM (1PBC 100, 100 mV, read-out: fraction of unblocked current) was 46.8%, the remaining activity at 100 µM (1PBC 100, 120 mV, read-out: fraction of unblocked current) was 47.6% and the remaining activity at 100 µM (1PBC 100, 140 mV, read-out: fraction of unblocked current) was 48%. It also gave a remaining activity at 100 µM (1PBC 100, -20 mV, read-out: fraction of unblocked current) of 56.9%, a remaining activity at 100 µM (1PBC 100, -40 mV, read-out: fraction of unblocked current) of 59% and a remaining activity at 100 µM (1PBC 100, -60 mV, read-out: fraction of unblocked current) of 60.7%. For the same compound, the remaining activity at 100 µM (1PBC 100, -80 mV, read-out: fraction of unblocked current) was 61.6%, the remaining activity at 100 µM (1PBC 100, -100 mV, read-out: fraction of unblocked current) was 61.8% and the remaining activity at 100 µM (1PBC 100, -120 mV, read-out: fraction of unblocked current) was 62.9%. It also gave a remaining activity at 100 µM (1PBC 100, -140 mV, read-out: fraction of unblocked current) of 62.4%, an IC50 (20 mV, 4 µM Ca2+) of 110 µM and an IC50 (40 mV, 4 µM Ca2+) of 102 µM. The IC50 (60 mV, 4 µM Ca2+) was 92.1 µM, the “log-fold IC50 (change of mutant vs WT)” value (80 mV) was 1.6299 and the IC50 (80 mV, 4 µM Ca2+) was 91.4 µM. For the same compound, the IC50 (100 mV, 4 µM Ca2+) was 88.7 µM, the IC50 (120 mV, 4 µM Ca2+) was 84.4 µM and the IC50 (140 mV, 4 µM Ca2+) was 86.1 µM. The IC50 (-20 mV, 4 µM Ca2+) was 131 µM, the IC50 (-40 mV, 4 µM Ca2+) was 145 µM and the IC50 (-60 mV, 4 µM Ca2+) was 153 µM. The IC50 (-80 mV, 4 µM Ca2+) was 166 µM, the IC50 (-100 mV, 4 µM Ca2+) was 169 µM and the IC50 (-120 mV, 4 µM Ca2+) was 172 µM. For the same compound, the IC50 (-140 mV, 4 µM Ca2+) was 168 µM, the IC50 (R515A, V 0 mV) was 120 µM and the IC50 (R515A, V 20 mV) was 110 µM. The IC50 (R515A, V 40 mV) was 102 µM, the IC50 (R515A, V 60 mV) was 92.1 µM and the IC50 (R515A, V 80 mV) was 91.4 µM. For the same compound, the IC50 (R515A, V 100 mV) was 88.7 µM, the IC50 (R515A, V 120 mV) was 84.4 µM and the IC50 (R515A, V 140 mV) was 86.1 µM. For the same compound, the IC50 (R515A, V -20 mV) was 131 µM, the IC50 (R515A, V -40 mV) was 145 µM and the IC50 (R515A, V -60 mV) was 153 µM. It also gave an IC50 (R515A, V -80 mV) of 166 µM, an IC50 (R515A, V -100 mV) of 169 µM and an IC50 (R515A, V -120 mV) of 172 µM. The IC50 (R515A, V -140 mV) was 168 µM.
